{
  "source": "PubChem BioAssay AID1963959",
  "about": "(Molecular Pharmacology Branch, DTP, NCI, 2024)",
  "system": "T-47D spheroids with HUVEC/MSC, viability",
  "test": "Anticancer human tumor T-47D cell line growth inhibition [PI3K];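 note: spheroids exposed to agents for seven days before reading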;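 for viability, T/C: percent of DMSO vehicle control luminescence so 100% = untreated growth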",
  "conditions": "for IC50: curve of first compound; for viability, T/C: stronger effect = lower value",
  "in_short": "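Targeted small molecules plus PI3K inhibitors, half-log dose series from Cmax (default top 10 microM), were applied to heterotypic spheroids of cancer cells with HUVEC and MSCs. Viability indicated growth inhibition.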",
  "key": {"[1]": {"conditions": "second compound 0.00316 µM, first compound 0.000316 µM"}, "[2]": {"conditions": "second compound 0.00316 µM, first compound 0.001 µM"}, "[3]": {"conditions": "second compound 0.00316 µM, first compound 0.00316 µM"}, "[4]": {"conditions": "second compound 0.00316 µM, first compound 0.01 µM"}, "[5]": {"conditions": "second compound 0.00316 µM, first compound 0.0316 µM"}, "[6]": {"conditions": "second compound 0.00316 µM, first compound 0.1 µM"}, "[7]": {"conditions": "second compound 0.01 µM, first compound 0.000316 µM"}, "[8]": {"conditions": "second compound 0.01 µM, first compound 0.001 µM"}, "[9]": {"conditions": "second compound 0.01 µM, first compound 0.00316 µM"}, "[10]": {"conditions": "second compound 0.01 µM, first compound 0.01 µM"}, "[11]": {"conditions": "second compound 0.01 µM, first compound 0.0316 µM"}, "[12]": {"conditions": "second compound 0.01 µM, first compound 0.1 µM"}, "[13]": {"conditions": "second compound 0.0316 µM, first compound 0.000316 µM"}, "[14]": {"conditions": "second compound 0.0316 µM, first compound 0.001 µM"}, "[15]": {"conditions": "second compound 0.0316 µM, first compound 0.00316 µM"}, "[16]": {"conditions": "second compound 0.0316 µM, first compound 0.01 µM"}, "[17]": {"conditions": "second compound 0.0316 µM, first compound 0.0316 µM"}, "[18]": {"conditions": "second compound 0.0316 µM, first compound 0.1 µM"}, "[19]": {"conditions": "second compound 0.1 µM, first compound 0.000316 µM"}, "[20]": {"conditions": "second compound 0.1 µM, first compound 0.001 µM"}, "[21]": {"conditions": "second compound 0.1 µM, first compound 0.00316 µM"}, "[22]": {"conditions": "second compound 0.1 µM, first compound 0.01 µM"}, "[23]": {"conditions": "second compound 0.1 µM, first compound 0.0316 µM"}, "[24]": {"conditions": "second compound 0.1 µM, first compound 0.1 µM"}, "[25]": {"conditions": "second compound 0.316 µM, first compound 0.000316 µM"}, "[26]": {"conditions": "second compound 0.316 µM, first compound 0.001 µM"}, "[27]": {"conditions": "second compound 0.316 µM, first compound 0.00316 µM"}, "[28]": {"conditions": "second compound 0.316 µM, first compound 0.01 µM"}, "[29]": {"conditions": "second compound 0.316 µM, first compound 0.0316 µM"}, "[30]": {"conditions": "second compound 0.316 µM, first compound 0.1 µM"}, "[31]": {"conditions": "second compound 1 µM, first compound 0.000316 µM"}, "[32]": {"conditions": "second compound 1 µM, first compound 0.001 µM"}, "[33]": {"conditions": "second compound 1 µM, first compound 0.00316 µM"}, "[34]": {"conditions": "second compound 1 µM, first compound 0.01 µM"}, "[35]": {"conditions": "second compound 1 µM, first compound 0.0316 µM"}, "[36]": {"conditions": "second compound 1 µM, first compound 0.1 µM"}},
  "data": [
    {"smiles": "CC(=O)c1c(C)c2cnc(Nc3ccc(N4CCNCC4)cn3)nc2n(C2CCCC2)c1=O", "note": "+ COc1c(OCCCN2CCOCC2)ccc2c3n(c(=NC(=O)c4cnc(N)nc4)nc12)CCN3", "values": [
      {"measurement": "IC50", "setting": "second compound 0.00316 µM", "value": "> 100", "unit": "nM"},
      {"measurement": "IC50", "setting": "second compound 0.01 µM", "value": "> 100", "unit": "nM"},
      {"measurement": "IC50", "setting": "second compound 0.0316 µM", "value": 39.7, "unit": "nM"},
      {"measurement": "IC50", "setting": "second compound 0.1 µM", "value": "< 0.316", "unit": "nM"},
      {"measurement": "IC50", "setting": "second compound 0.316 µM", "value": "< 0.316", "unit": "nM"},
      {"measurement": "IC50", "setting": "second compound 1 µM", "value": "< 0.316", "unit": "nM"},
      {"measurement": "viability, T/C", "setting": "[1]", "value": 120, "unit": "%"},
      {"measurement": "viability, T/C", "setting": "[2]", "value": 118, "unit": "%"},
      {"measurement": "viability, T/C", "setting": "[3]", "value": 95.3, "unit": "%"},
      {"measurement": "viability, T/C", "setting": "[4]", "value": 95.6, "unit": "%"},
      {"measurement": "viability, T/C", "setting": "[5]", "value": 80.5, "unit": "%"},
      {"measurement": "viability, T/C", "setting": "[6]", "value": 85, "unit": "%"},
      {"measurement": "viability, T/C", "setting": "[7]", "value": 89.3, "unit": "%"},
      {"measurement": "viability, T/C", "setting": "[8]", "value": 104, "unit": "%"},
      {"measurement": "viability, T/C", "setting": "[9]", "value": 95.5, "unit": "%"},
      {"measurement": "viability, T/C", "setting": "[10]", "value": 83.4, "unit": "%"},
      {"measurement": "viability, T/C", "setting": "[11]", "value": 84.3, "unit": "%"},
      {"measurement": "viability, T/C", "setting": "[12]", "value": 74.2, "unit": "%"},
      {"measurement": "viability, T/C", "setting": "[13]", "value": 71.3, "unit": "%"},
      {"measurement": "viability, T/C", "setting": "[14]", "value": 64.8, "unit": "%"},
      {"measurement": "viability, T/C", "setting": "[15]", "value": 74.2, "unit": "%"},
      {"measurement": "viability, T/C", "setting": "[16]", "value": 68.3, "unit": "%"},
      {"measurement": "viability, T/C", "setting": "[17]", "value": 51.8, "unit": "%"},
      {"measurement": "viability, T/C", "setting": "[18]", "value": 42.7, "unit": "%"},
      {"measurement": "viability, T/C", "setting": "[19]", "value": 35.3, "unit": "%"},
      {"measurement": "viability, T/C", "setting": "[20]", "value": 42.8, "unit": "%"},
      {"measurement": "viability, T/C", "setting": "[21]", "value": 34, "unit": "%"},
      {"measurement": "viability, T/C", "setting": "[22]", "value": 32.9, "unit": "%"},
      {"measurement": "viability, T/C", "setting": "[23]", "value": 26.6, "unit": "%"},
      {"measurement": "viability, T/C", "setting": "[24]", "value": 27.1, "unit": "%"},
      {"measurement": "viability, T/C", "setting": "[25]", "value": 14.5, "unit": "%"},
      {"measurement": "viability, T/C", "setting": "[26]", "value": 17.1, "unit": "%"},
      {"measurement": "viability, T/C", "setting": "[27]", "value": 19.7, "unit": "%"},
      {"measurement": "viability, T/C", "setting": "[28]", "value": 13.2, "unit": "%"},
      {"measurement": "viability, T/C", "setting": "[29]", "value": 15, "unit": "%"},
      {"measurement": "viability, T/C", "setting": "[30]", "value": 13.6, "unit": "%"},
      {"measurement": "viability, T/C", "setting": "[31]", "value": 5.84, "unit": "%"},
      {"measurement": "viability, T/C", "setting": "[32]", "value": 7.18, "unit": "%"},
      {"measurement": "viability, T/C", "setting": "[33]", "value": 7.6, "unit": "%"},
      {"measurement": "viability, T/C", "setting": "[34]", "value": 5.71, "unit": "%"},
      {"measurement": "viability, T/C", "setting": "[35]", "value": 7.91, "unit": "%"},
      {"measurement": "viability, T/C", "setting": "[36]", "value": 6.26, "unit": "%"}
    ]},
    {"smiles": "CC(C)n1nc(-c2ccc3oc(N)nc3c2)c2c(N)ncnc21", "note": "+ COc1c(OCCCN2CCOCC2)ccc2c3n(c(=NC(=O)c4cnc(N)nc4)nc12)CCN3", "values": [
      {"measurement": "IC50", "setting": "second compound 0.00316 µM", "value": 56.6, "unit": "nM"},
      {"measurement": "IC50", "setting": "second compound 0.01 µM", "value": 39.1, "unit": "nM"},
      {"measurement": "IC50", "setting": "second compound 0.0316 µM", "value": 3.78, "unit": "nM"},
      {"measurement": "IC50", "setting": "second compound 0.1 µM", "value": "< 0.316", "unit": "nM"},
      {"measurement": "IC50", "setting": "second compound 0.316 µM", "value": "< 0.316", "unit": "nM"},
      {"measurement": "IC50", "setting": "second compound 1 µM", "value": "< 0.316", "unit": "nM"},
      {"measurement": "viability, T/C", "setting": "[1]", "value": 103, "unit": "%"},
      {"measurement": "viability, T/C", "setting": "[2]", "value": 82.3, "unit": "%"},
      {"measurement": "viability, T/C", "setting": "[3]", "value": 106, "unit": "%"},
      {"measurement": "viability, T/C", "setting": "[4]", "value": 92.5, "unit": "%"},
      {"measurement": "viability, T/C", "setting": "[5]", "value": 77.6, "unit": "%"},
      {"measurement": "viability, T/C", "setting": "[6]", "value": 23.1, "unit": "%"},
      {"measurement": "viability, T/C", "setting": "[7]", "value": 103, "unit": "%"},
      {"measurement": "viability, T/C", "setting": "[8]", "value": 78.2, "unit": "%"},
      {"measurement": "viability, T/C", "setting": "[9]", "value": 98.5, "unit": "%"},
      {"measurement": "viability, T/C", "setting": "[10]", "value": 78.3, "unit": "%"},
      {"measurement": "viability, T/C", "setting": "[11]", "value": 57.7, "unit": "%"},
      {"measurement": "viability, T/C", "setting": "[12]", "value": 16.7, "unit": "%"},
      {"measurement": "viability, T/C", "setting": "[13]", "value": 80.9, "unit": "%"},
      {"measurement": "viability, T/C", "setting": "[14]", "value": 58, "unit": "%"},
      {"measurement": "viability, T/C", "setting": "[15]", "value": 52.1, "unit": "%"},
      {"measurement": "viability, T/C", "setting": "[16]", "value": 39.9, "unit": "%"},
      {"measurement": "viability, T/C", "setting": "[17]", "value": 29.8, "unit": "%"},
      {"measurement": "viability, T/C", "setting": "[18]", "value": 7.95, "unit": "%"},
      {"measurement": "viability, T/C", "setting": "[19]", "value": 46, "unit": "%"},
      {"measurement": "viability, T/C", "setting": "[20]", "value": 36.5, "unit": "%"},
      {"measurement": "viability, T/C", "setting": "[21]", "value": 31.2, "unit": "%"},
      {"measurement": "viability, T/C", "setting": "[22]", "value": 23.6, "unit": "%"},
      {"measurement": "viability, T/C", "setting": "[23]", "value": 15.8, "unit": "%"},
      {"measurement": "viability, T/C", "setting": "[24]", "value": 2.05, "unit": "%"},
      {"measurement": "viability, T/C", "setting": "[25]", "value": 14.4, "unit": "%"},
      {"measurement": "viability, T/C", "setting": "[26]", "value": 17.3, "unit": "%"},
      {"measurement": "viability, T/C", "setting": "[27]", "value": 12.6, "unit": "%"},
      {"measurement": "viability, T/C", "setting": "[28]", "value": 12.3, "unit": "%"},
      {"measurement": "viability, T/C", "setting": "[29]", "value": 6.24, "unit": "%"},
      {"measurement": "viability, T/C", "setting": "[30]", "value": 0.85, "unit": "%"},
      {"measurement": "viability, T/C", "setting": "[31]", "value": 5.77, "unit": "%"},
      {"measurement": "viability, T/C", "setting": "[32]", "value": 4.9, "unit": "%"},
      {"measurement": "viability, T/C", "setting": "[33]", "value": 6.77, "unit": "%"},
      {"measurement": "viability, T/C", "setting": "[34]", "value": 5.07, "unit": "%"},
      {"measurement": "viability, T/C", "setting": "[35]", "value": 3.21, "unit": "%"},
      {"measurement": "viability, T/C", "setting": "[36]", "value": 1.6, "unit": "%"}
    ]}
  ]
}
